Data: article PMC3175485 (2011)

Molecular target: PDE4D3 (Homo sapiens, UniProt Q08499)
Test: biochemical

Chain of PDE4D3 (Q08499 1-673 isoform Q08499-2): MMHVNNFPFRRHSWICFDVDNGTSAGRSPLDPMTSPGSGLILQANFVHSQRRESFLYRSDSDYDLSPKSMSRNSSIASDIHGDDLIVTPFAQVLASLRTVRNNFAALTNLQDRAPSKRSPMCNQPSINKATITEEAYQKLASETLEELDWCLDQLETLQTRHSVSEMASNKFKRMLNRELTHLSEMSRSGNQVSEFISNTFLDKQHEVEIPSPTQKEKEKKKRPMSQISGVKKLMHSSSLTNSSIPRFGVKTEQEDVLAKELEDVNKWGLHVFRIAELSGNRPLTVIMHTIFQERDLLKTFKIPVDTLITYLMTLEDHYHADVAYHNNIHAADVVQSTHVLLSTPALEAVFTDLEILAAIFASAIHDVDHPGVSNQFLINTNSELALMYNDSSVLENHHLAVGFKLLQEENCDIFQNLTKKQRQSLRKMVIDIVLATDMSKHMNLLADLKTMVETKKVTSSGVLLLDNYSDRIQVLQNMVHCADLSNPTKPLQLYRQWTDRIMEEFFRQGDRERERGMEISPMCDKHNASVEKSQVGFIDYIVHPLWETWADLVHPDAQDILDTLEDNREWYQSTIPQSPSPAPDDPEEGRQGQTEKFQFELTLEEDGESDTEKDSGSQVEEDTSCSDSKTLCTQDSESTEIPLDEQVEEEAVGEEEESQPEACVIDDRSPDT

COc1ccc(-c2cc(C(F)F)nn2-c2ccc(S(N)(=O)=O)cc2)cc1F [deracoxib]
IC50: 3.6 ± 0.5 µM
